Test results as given in patent US20010047099A1, “4-aminopicolinates and their use as herbicides” (priority 2000, published 2001).
Where two headings read alike, the source gives them in different places.

Assays:
[1] = test system: chickweed (Stellaria media); assay: Postemergence herbicidal activity; assay type: in vivo; settings: for pest or weed control at 250 ppm / inhibition at 125 ppm / pest or weed control at 125 ppm: Stellaria media, post-emergence, 336 h; for pest or weed control at 250 ppm / pest or weed control at 125 ppm: read-out: Post-emergent % Control STEME; for inhibition at 125 ppm: Table 2, read-out: POSTMERGENCE HERBICIDAL ACTIVITY % CONTROL STEME
Outline: (§1)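 Plants are raised from seed under greenhouse conditions until the first or second true leaf appears. They are then sprayed with test solutions at known concentrations, where 1 ppm corresponds to roughly 1 g/Ha. Two weeks later, injury is rated by eye from 0 to 100%.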

[2] = test system: cocklebur (Xanthium strumarium); assay: Postemergence herbicidal activity; assay type: in vivo; settings: Xanthium strumarium, post-emergence, 336 h; for pest or weed control at 250 ppm: rate 250 ppm; for pest or weed control at 250 ppm / pest or weed control at 125 ppm: read-out: Post-emergent % Control XANST; for inhibition at 125 ppm: Table 2, read-out: POSTMERGENCE HERBICIDAL ACTIVITY % CONTROL XANST
Outline: as §1

[3] = test system: wild buckwheat (Polygonum convolvulus); assay: Postemergence herbicidal activity; assay type: in vivo; settings: for pest or weed control at 250 ppm / inhibition at 125 ppm / pest or weed control at 125 ppm: Fallopia convolvulus, post-emergence, 336 h; for pest or weed control at 250 ppm / pest or weed control at 125 ppm: read-out: Post-emergent % Control POLCO; for inhibition at 125 ppm: Table 2, read-out: POSTMERGENCE HERBICIDAL ACTIVITY % CONTROL POLCO
Outline: as §1

[4] = test system: morningglory (Ipomoea hederacea); assay: Preemergence herbicidal activity; assay type: in vivo; settings: Ipomoea, 504 h, read-out: % Control IPOHE; for pest or weed control at 560 ppm: rate 560 ppm
Outline: (§2)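 Test compounds in acetone/DMSO were diluted in water with 0.1% Tween 155 and sprayed onto the soil surface of freshly seeded pots (loam/sand 70:30, pH about 8.1). Plants grew in a greenhouse at about 23-29° C day under a 15 h photoperiod. Injury was scored visually after 3 weeks versus untreated plants, 0-100%.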

[5] = test system: pigweed (Amaranthus retroflexus); assay: Preemergence herbicidal activity; assay type: in vivo; settings: Amaranthus retroflexus, 504 h; for pest or weed control at 560 ppm: rate 560 ppm; for pest or weed control at 560 ppm / pest or weed control at 280 ppm: read-out: % Control AMARE; for inhibition at 35 g/ha: pre-emergence, Table 7, rate 35 g/Ha
Outline: as §2

[6] = test system: velvetleaf (Abutilon theophrasti); assay: Preemergence herbicidal activity; assay type: in vivo; settings: Abutilon theophrasti, 504 h; for pest or weed control at 560 ppm: rate 560 ppm; for pest or weed control at 560 ppm / pest or weed control at 280 ppm: read-out: % Control ABUTH; for inhibition at 35 g/ha: pre-emergence, Table 7, rate 35 g/Ha
Outline: as §2

[7] = Table 1, rate 250 ppm, visual, after 2 weeks
[8] = Table 6 (headed Post-emergent; text: preemergence), after 3 weeks
[9] = after 3 weeks, read-out: PREEMERGENCE HERBICIDAL ACTIVITY % CONTROL AMARE
[10] = after 3 weeks, read-out: PREEMERGENCE HERBICIDAL ACTIVITY % CONTROL ABUTH
[11] = Table 1, rate 125 ppm, visual, after 2 weeks
[12] = Table 6 (headed Post-emergent; text: preemergence), rate 280 ppm, after 3 weeks

COc1c(C(=O)O)nc(Br)c(Cl)c1N [Compound 42, 4-Amino-6-bromo-5-chloro-3-methoxypyridine-2-carboxylic acid]
pest or weed control at 250 ppm [1, 7]: 90% | pest or weed control at 250 ppm ([2]; Table 1, visual, after 2 weeks): 85% | pest or weed control at 250 ppm [3, 7]: 90% | pest or weed control at 560 ppm [4, 8]: 100% | pest or weed control at 560 ppm [5, 8]: 100% | inhibition at 35 g/ha [5, 9]: 60% | pest or weed control at 560 ppm [6, 8]: 100% | inhibition at 35 g/ha [6, 10]: 80% | melting point: 154 to 156 °C

Nc1cc(Cl)nc(C(=O)O)c1Cl [Compound 1, 4-Amino-3,6-dichloropyridine-2-carboxylic acid]
inhibition at 125 ppm ([1]; read-out: PO[…] % CONTROL STEME, rate 125 ppm, after 2 weeks): 90% | pest or weed control at 125 ppm [1]: 100% | inhibition at 125 ppm ([2]; read-out: PO[…] % CONTROL XANST, rate 125 ppm, after 2 weeks): 100% | pest or weed control at 125 ppm [2]: 95% | inhibition at 125 ppm ([3]; read-out: PO[…] % CONTROL POLCO, rate 125 ppm, after 2 weeks): 100% | pest or weed control at 125 ppm [3]: 100% | pest or weed control at 280 ppm [4]: 100% | pest or weed control at 280 ppm [5]: 100% | inhibition at 35 g/ha ([5]; read-out: PR[…] % CONTROL AMARE, after 3 weeks): 88% | pest or weed control at 280 ppm [6]: 100% | inhibition at 35 g/ha ([6]; read-out: PR[…] % CONTROL ABUTH, after 3 weeks): 95%

CCOC(=O)c1nc(Cl)cc(N)c1Cl [Compound 4, ethyl 4-amino-3,6-dichloropyridine-2-carboxylate]
pest or weed control at 125 ppm [1, 11]: 100% | inhibition at 125 ppm ([1]; rate 125 ppm, after 2 weeks): 70% | pest or weed control at 125 ppm [2, 11]: 100% | inhibition at 125 ppm ([2]; rate 125 ppm, after 2 weeks): 100% | pest or weed control at 125 ppm [3, 11]: 100% | inhibition at 125 ppm ([3]; rate 125 ppm, after 2 weeks): 100% | pest or weed control at 280 ppm [4, 12]: 100% | pest or weed control at 280 ppm [5, 12]: 100% | pest or weed control at 280 ppm [6, 12]: 100% | melting point: 98 to 99 °C

Nc1cc(Br)nc(C(=O)O)c1Cl [Compound 14, 4-Amino-6-bromo-3-chloropyridine-2-carboxylic acid]
pest or weed control at 250 ppm [1, 7]: 90% | inhibition at 125 ppm ([1]; rate 125 ppm, after 2 weeks): 65% | Post-emergent Evaluation - % control STEME ([1]; Table 5, rate 250 ppm): 70% | pest or weed control at 250 ppm ([2]; Table 1, visual, after 2 weeks): 85% | inhibition at 125 ppm ([2]; rate 125 ppm, after 2 weeks): 100% | pest or weed control at 250 ppm [3, 7]: 50% | inhibition at 125 ppm ([3]; rate 125 ppm, after 2 weeks): 100% | Post-emergent Evaluation - % control POLCO ([3]; Table 5, rate 250 ppm): 90% | pest or weed control at 560 ppm [4, 8]: 100% | pest or weed control at 560 ppm [5, 8]: 90% | inhibition at 35 g/ha [5, 9]: 100% | pest or weed control at 560 ppm [6, 8]: 100% | inhibition at 35 g/ha [6, 10]: 100% | melting point: 182 to 183 °C

COC(=O)c1nc(Cl)cc(N)c1Cl [Compound 3, methyl 4-amino-3,6-dichloropyridine-2-carboxylate]
pest or weed control at 125 ppm [1, 11]: 100% | pest or weed control at 125 ppm [2, 11]: 100% | pest or weed control at 125 ppm [3, 11]: 100% | pest or weed control at 280 ppm [4, 12]: 100% | pest or weed control at 280 ppm [5, 12]: 100% | inhibition at 35 g/ha [5, 9]: 90% | pest or weed control at 280 ppm [6, 12]: 100% | inhibition at 35 g/ha [6, 10]: 95% | melting point: 134 to 135 °C

Nc1c(F)c(Cl)nc(C(=O)O)c1Cl [Compound 19, 4-Amino-3,6-dichloro-5-fluoropyridine-2-carboxylic acid]
pest or weed control at 125 ppm [1, 11]: 95% | inhibition at 125 ppm ([1]; rate 125 ppm, after 2 weeks): 60% | pest or weed control at 125 ppm [2, 11]: 95% | inhibition at 125 ppm ([2]; rate 125 ppm, after 2 weeks): 95% | pest or weed control at 125 ppm [3, 11]: 100% | inhibition at 125 ppm ([3]; rate 125 ppm, after 2 weeks): 100% | pest or weed control at 560 ppm [4, 8]: 100% | pest or weed control at 560 ppm [5, 8]: 100% | pest or weed control at 560 ppm [6, 8]: 100% | melting point: 214 °C (dec.)
